Results on eight compounds are retold here after ChEMBL document CHEMBL1201862, “PubChem BioAssay data set” (2004).

Holding throughout (assay): NCI tumour cell line growth inhibition, 48 h
In experiment [1] the test system is HL-60.
Experiment [2] deals with SR.
Experiment [3] relates to HOP-62.
Experiment [4] has as its system OVCAR-3.
Experiment [5] has as its system SK-MEL-2.
Experiment [6] deals with MOLT-4.
The subject of experiment [7] is NCI-H460.
Experiment [8] relates to M14.
For experiment [9], the system named is CCRF-CEM.
Experiment [10] concerns U-251.
Experiment [11] relates to SK-MEL-28.
The test system of experiment [12] is Malme-3M.
The test system of experiment [13] is RXF 393.
Experiment [14] relates to EKVX.
In experiment [15] the test system is IGROV-1.
Experiment [16] has as its system SNB-19.
Experiment [17] has as its system OVCAR-8.
Experiment [18] concerns SNB-75.
Experiment [19] concerns UACC-257.
In experiment [20] the test system is HOP-92.

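In this assay, cells in 96-well plates receive the compound at five concentrations for 48 hours. Endpoints are linearly interpolated between the surrounding concentrations. GI50 = concentration required for 50% inhibition of growth.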 Calls of active or inactive are those of the source. Cut-off read from the data, not from the text of the source: active = GI50 up to about 1.1 µM and inactive = higher.

For `N#CC1CCCCOCCOCCOCCOCCOCCCCCC1=O` (stereo not given), the GI50 in experiment [1], in [2], in experiment [3], in experiment [4], in [5] and in experiment [6] was > 100 µM (inactive) in each case. The GI50 in [7], in experiment [8], in experiment [9], in experiment [10], in experiment [11] and in experiment [12] was > 100 µM (inactive) throughout. In addition, the GI50 in experiment [13], in experiment [14], in experiment [15], in [16], in [17] and in experiment [18] was > 100 µM (inactive) each time. The GI50 in experiment [19] is > 100 µM (inactive).
Turning to `COc1c(C)cc2c(c1O)C1C3[C@H]4SC[C@@]5(NCCC6=C5NC5C=CC=CC65)C(=O)OCC(c5c6c(c(C)c(OC(C)=O)c54)OCO6)N3[C@@H](O)C(C2)N1C` (stereo not given in full), the GI50 in [1], in experiment [2], in experiment [3], in experiment [4], in experiment [5] and in experiment [6] was < 0.01 µM (active) each time. The GI50 was < 0.01 µM (active) in [7]; < 0.01 µM (active) in [8]; < 0.01 µM (active) in experiment [9]; < 0.01 µM (active) in [10]; 0.0134 µM (active) in [11]; < 0.01 µM (active) in [12]. Besides, the GI50 is < 0.01 µM (active) in experiment [13]; 0.0297 µM (active) in experiment [14]; < 0.01 µM (active) in [15]; < 0.01 µM (active) in [16]; < 0.01 µM (active) in experiment [17]; < 0.01 µM (active) in experiment [18]. Also, the GI50 in experiment [19] is < 0.01 µM (active).
For the compound `C[C@]12CCC3c4ccc(O)cc4CC[C@H]3C1CC(=O)N(CCN1CCCC1)C2=O` (stereo not given in full), the GI50 in experiment [1], in experiment [2], in experiment [3], in experiment [4], in experiment [5] and in experiment [6] was > 10 µM (inactive) throughout. The GI50 in [7], in experiment [8], in [9], in experiment [10], in [11] and in [12] was > 10 µM (inactive) in each case. Besides, the GI50 in [13] was > 10 µM (inactive); in experiment [14], > 10 µM (inactive); in experiment [15], > 10 µM (inactive); in experiment [16], > 10 µM (inactive); in experiment [17], > 10 µM (inactive); in experiment [18], 7.96 µM (inactive). In addition, the GI50 in experiment [19] is > 10 µM (inactive).
Consider `COC(=O)c1cc(=O)nc2cc3cccccc3n12`, for which the GI50 in experiment [1] was > 100 µM (inactive); in [2], > 100 µM (inactive); in experiment [3], > 100 µM (inactive); in experiment [4], > 100 µM (inactive); in [6] it was > 100 µM (inactive); in experiment [7], 59 µM (inactive). The GI50 in experiment [8], in experiment [9], in experiment [10], in experiment [11], in experiment [12] and in [13] was > 100 µM (inactive) in each case. For the same compound, the GI50 in [14], in [15], in experiment [16], in [17], in experiment [18] and in experiment [19] was > 100 µM (inactive) in each case.
In the case of `CCOC(=O)NNC(=O)NCCNC(=O)NNC(=O)OCC`, the GI50 in experiment [1], in [2], in experiment [4], in [5], in [6] and in experiment [7] was > 100 µM (inactive) throughout. Moreover, the GI50 in [8], in [9], in [10], in experiment [11], in experiment [12] and in experiment [13] was > 100 µM (inactive) each time. The GI50 in experiment [14], in [16], in experiment [17], in experiment [18] and in experiment [19] was > 100 µM (inactive) throughout.
With `Cc1ccc(/C(=C\C(=O)C(=O)NC23CC4CC(CC(C4)C2)C3)Sc2ccccc2)cc1`, the GI50 in experiment [1] is 5.82 µM (inactive); in experiment [2] it was > 10 µM (inactive); in [3] it was > 10 µM (inactive); in experiment [4], > 10 µM (inactive); in [5], > 10 µM (inactive); in experiment [6] it was 4.63 µM (inactive). For the same compound, the GI50 in experiment [7] was > 10 µM (inactive); in [8] it was > 10 µM (inactive); in experiment [9], 4.75 µM (inactive); in experiment [10], > 10 µM (inactive); in experiment [11], > 10 µM (inactive); in experiment [12] it was > 10 µM (inactive). The GI50 in experiment [13], in experiment [14], in experiment [15], in experiment [17], in [18] and in experiment [19] was > 10 µM (inactive) throughout.
For `Clc1ccccc1C(Nc1ncccn1)Nc1ncccn1`, the GI50 in experiment [20] was > 100 µM (inactive); in [1] it was > 100 µM (inactive); in [2] it was 8.15 µM (inactive); in experiment [3], > 100 µM (inactive); in experiment [4], > 100 µM (inactive); in [5] it was > 100 µM (inactive). For the same compound, the GI50 in experiment [6], in [7], in experiment [8], in [10], in [11] and in [13] was > 100 µM (inactive) each time. Also, the GI50 in experiment [14] is > 100 µM (inactive); in experiment [15] it was > 100 µM (inactive); in experiment [16], > 100 µM (inactive); in experiment [17], > 100 µM (inactive); in experiment [18] it was 47 µM (inactive); in [19], > 100 µM (inactive).
In the case of `CC(=O)C(C(C)=O)=C1CCCC(O)O1` (stereo not given), the GI50 in experiment [1] is > 100 µM (inactive); in experiment [2] it was 62.2 µM (inactive); in experiment [3], > 100 µM (inactive); in experiment [6], > 100 µM (inactive); in experiment [7] it was > 100 µM (inactive); in [8] it was > 100 µM (inactive). Further, the GI50 in experiment [9] is 48.5 µM (inactive); in [10], > 100 µM (inactive); in experiment [11], > 100 µM (inactive); in experiment [12], > 100 µM (inactive); in experiment [13], > 100 µM (inactive); in experiment [14] it was > 100 µM (inactive). Further, the GI50 in [15], in [16], in [17], in [18] and in [19] was > 100 µM (inactive) in each case.
